From paper PMC10400562, “Label-free measurement of antimicrobial peptide interactions with lipid vesicles and nanodiscs using microscale thermophoresis” (Scientific Reports, 2023)
Non-standard residues stand in square brackets, D forms with d. Residues, ends and D or L forms follow the SMILES beside them.

Assays:
[1] = Label-free MST, peptide binding to 100 nm vesicles; conditions: 2500 nM AMP; for Kd: label-free MST (Trp fluorescence), lipid 0–1.5 mM, 10 mM TRIS pH 7.4 100 mM NaCl, mean ± SD of triplicates, '>' = minimum value; for Vesicle KP, DMPC (MST) / Vesicle KP, DMPC/PG (MST): partition coefficient from initial fluorescence on MST instrument, TRIS pH 7.4, ± SD of triplicate fits, judged unreliable by authors; for Vesicle KP, DMPC (MST): hyperbolic fit after removal of deviant points; for Vesicle KP, DMPC/PG (MST): hyperbolic fit
Excerpt: For KD evaluation by MST, FHot was registered during the temperature related intensity change (TRIC) phase of the MST trace (see “Methods”). The advantage of evaluating KD during the TRIC phase is that any potential effects of prolonged heating on the thermostability of the sample that may influence the binding can be avoided. The dose–response profile of MST response against lipid concentration for 1–5 largely follows a sigmoidal curve shape (Fig. 3A,B).
DMPC and DMPC:5% DMPG vesicles were prepared by solubilising a known weight of lipid in chloroform with a small amount of methanol to assist in the dissolution of the PG lipid head groups. The chloroform stock was dried in vacuo to produce a lipid film, which was further dried for additional 3 h. The lipid film was solubilised in 10 mM TRIS buffer (pH 7.4) containing 100 mM NaCl to yield a 20 mM milky lipid stock.
To produce the working vesicle stock, 1 mL of vesicle stock was extruded 20 times through a 0.1 µm filter using an Avanti Lipids mini-extruder. Vesicle size was confirmed using a Malvern Zetasizer Nano ZS (Malvern Panalytical Ltd, Malvern, United Kingdom).
(§1) All MST measurements were conducted on a NanoTemper Monolith NT. Labelfree instrument, using Monolith NT. Labelfree standard treated zero background capillaries.
(§2) A dilution series of vesicles/nanodiscs was prepared from 3 mM to 100 nM lipid concentrations, comprising 15 discrete samples, and an additional zero lipid sample, for a total of 16 lipid concentrations. Final MST samples were prepared as a combination of 25 µL lipid solution and 25 µL 5 µM peptide solution (Table S1 in the Supporting Information).
(§3) MST measurements were conducted with excitation power set to 15%, with the MST power set to high. Laser time settings were: 3 s pre-laser, 30 s on time, and 3 s after heating. FHot was taken from the T-jump period after 1.5 s and FCold taken in the second prior to IR laser activation. For the evaluation of KP, the initial fluorescence was taken as the value reported during the period before the application of the laser. The MST response and initial fluorescence were extracted directly as a text file for further processing in MATLAB.
(§4) In a typical binding experiment that yields a sigmoidal curve, the Hill equation can be fitted to yield KD:[66]6 y=y0+EMaxLipid^n/KDn+Lipid^n where y is the MST response, y0 is the MST response of the AMP in an aqueous solution (i.e., in the absence of lipids), n is the Hill coefficient, and EMax is the maximal effect of the tested substrate. The removal of outlying MST response points was necessary. Erroneous points were identified by poor MST trace shapes or higher than expected initial fluorescence that was absent in the other replicates or subsequent points, but otherwise no further treatment of data was necessary. In all instances the MST response was plotted against log lipid concentration in nM and fit to Eq. (6).
(§5) The Kp of a molecule can be determined experimentally by observing changes in fluorescent intensity in the presence of an increasing concentration of lipid, and fitting to Eq. (8)[43].8 I/Iaq=1+KpVmLipidIL/Iaq/1+KPVmLipid
(§6) In Eq. (8) the fluorescence intensity of the AMP (I) is normalised to the fluorescence intensity of the AMP in an aqueous environment (Iaq), Vm is the molar volume of the lipids and IL is the fluorescence intensity of the AMP in the lipidic environment. For Vm, the average molar volume of the lipid composition is used. In the case of the DMPC only environments it is taken as the Vm of DMPC (1.023 nm^3), and in the DMPC-DMPG mixture it is the weighted average relative to the composition used (Vm DMPG = 0.997 nm^3)[54].

[2] = Label-free MST, peptide binding to SMA nanodiscs; conditions: for Kd: label-free MST, SMA nanodiscs (anionic belt), 2500 nM AMP, apparent KD dominated by interaction with SMA polymer, mean ± SD of triplicates; for SMA KP, DMPC (MST) / SMA KP, DMPC/PG (MST): partition coefficient from initial fluorescence on MST instrument, SMA nanodiscs, hyperbolic fit, ± SD of triplicate fits
Protocol: The MST data for two nanodisc types, SMA and SMA-QA, were evaluated using the same methodology as the vesicle data, with FHot taken during the TRIC, and Fnorm plotted against log[lipid] and fit to Eq. (6).
The DMPC, and DMPC with 5% DMPG 21 mM vesicle stocks were used for the nanodisc preparation. The stocks were combined with an 8% SMA stock solution to yield a final SMA concentration of 1% for SMA nanodiscs. The stocks were combined with a 100 mg/mL SMA-QA stock to yield a final lipid:SMA-QA w/w ratio of 1:1.5. The combined SMA/SMA-QA and lipid mixture were incubated at room temperature overnight and purified by SEC. Fractions containing SMA/SMA-QA discs were concentrated using centrifugation filters. Total lipid concentration was determined by ^31P NMR (Figs. S4–S7). Nanodisc size was confirmed using a Malvern Zetasizer Nano ZS (Malvern Panalytical Ltd, Malvern, United Kingdom).
as §1, §2, §3, §4, §5, §6

[3] = Vesicle; KP from the fits; conditions: buffer
[4] = Hill fit of Fnorm in TRIC phase, insufficient curve sampling, read-out: Vesicle KD, DMPC (MST)
[5] = Hill fit, read-out: Vesicle KD, DMPC/PG (MST)
[6] = read-out: SMA KD, DMPC/PG (MST)

Row | Kd [1, 4] | Kd [1, 5] | Vesicle KP, DMPC (MST) [1] | Vesicle KP, DMPC/PG (MST) [1] | Kd ([2]; read-out: SMA KD, DMPC (MST)) | Kd [2, 6] | SMA KP, DMPC (MST) [2] | SMA KP, DMPC/PG (MST) [2] | membrane partition coefficient KP (KP x 10^3) ([3]; DMPC vesicles (MST)) | membrane partition coefficient KP (KP x 10^3) ([3]; DMPC/PG vesicles (MST)) | Structure (SMILES)
1 | 21 ± 3 µM | 10 ± 5 µM | 7.24 ± 1.73 × 10^3 | 7.73 ± 1.58 × 10^3 | 1.2 ± 0.5 µM | 2.2 ± 0.4 µM | 10.40 ± 1.52 × 10^3 | 10.27 ± 2.13 × 10^3 | 7.24 ± 1.73 x10^3 | 7.73 ± 1.58 x10^3 | N=C(N)NCCC[C@@H]1NC(=O)[C@H](CCCNC(=N)N)NC(=O)[C@H](Cc2c[nH]c3ccccc23)NC(=O)[C@H](Cc2c[nH]c3ccccc23)NC(=O)[C@H](Cc2c[nH]c3ccccc23)NC(=O)[C@H](CCCNC(=N)N)NC1=O [compound 1] (cyclo(WWWRRR))
2 | 73 ± 53 µM | 24 ± 7 µM | 7.08 ± 2.32 × 10^3 | 16.97 ± 3.83 × 10^3 | 2.7 ± 0.5 µM | 5.6 ± 1.1 µM | 9.72 ± 2.69 × 10^3 | 3.57 ± 0.36 × 10^3 | 7.08 ± 2.32 x10^3 | 16.97 ± 3.83 x10^3 | N=C(N)NCCC[C@@H]1NC(=O)[C@H](Cc2c[nH]c3ccccc23)NC(=O)[C@H](CCCNC(=N)N)NC(=O)[C@H](Cc2c[nH]c3ccccc23)NC(=O)[C@H](CCCNC(=N)N)NC(=O)[C@H](Cc2c[nH]c3ccccc23)NC1=O [compound 2] (cyclo(WRWRWR))
3 | 28 ± 3 µM | 17 ± 13 µM | 2.55 ± 0.89 × 10^3 | 11.05 ± 4.49 × 10^3 | 1.1 ± 0.3 µM | 1.1 ± 0.5 µM | 2.34 ± 1.40 × 10^3 | 4.21 ± 0.43 × 10^3 | 2.55 ± 0.89 x10^3 | 11.05 ± 4.49 x10^3 | NCCCC[C@@H]1NC(=O)[C@H](CCCCN)NC(=O)[C@H](Cc2c[nH]c3ccccc23)NC(=O)[C@H](Cc2c[nH]c3ccccc23)NC(=O)[C@H](Cc2c[nH]c3ccccc23)NC(=O)[C@H](CCCCN)NC1=O [compound 3] (cyclo(WWWKKK))
4 | 282 ± 58 µM | 112 ± 29 µM | 8.56 ± 7.41 × 10^3 | 14.90 ± 4.84 × 10^3 | 8.6 ± 0.5 µM | 9.8 ± 0.3 µM | 0.70 ± 0.11 × 10^3 | 1.14 ± 0.12 × 10^3 | 8.56 ± 7.41 x10^3 | 14.90 ± 4.84 x10^3 | NCCCC[C@@H]1NC(=O)[C@H](Cc2c[nH]c3ccccc23)NC(=O)[C@H](CCCCN)NC(=O)[C@H](Cc2c[nH]c3ccccc23)NC(=O)[C@H](CCCCN)NC(=O)[C@H](Cc2c[nH]c3ccccc23)NC1=O [compound 4] (cyclo(WKWKWK))
5 | > 670 µM | > 650 µM | 3.10 ± 2.17 × 10^3 | 1.47 ± 0.07 × 10^3 |  |  | 6.98 ± 1.24 × 10^3 | 4.75 ± 0.32 × 10^3 | 3.10 ± 2.17 x10^3 | 1.47 ± 0.07 x10^3 | CC(C)C[C@@H]1NC(=O)[C@@H](CCCNC(=N)N)NC(=O)[C@H](CCCCN)NC(=O)[C@H](CC(N)=O)NC(=O)[C@@H](Cc2c[nH]c3ccccc23)NC(=O)[C@H](Cc2c[nH]c3ccccc23)NC1=O [compound 5] (cyclo(LW[dW]NK[dR]))
